Like-named read-outs stand apart in the source and are kept apart here.
Test system: vGLUT1- bzw. vGLUT2-Transporter
Experiment: Glutamate uptake into rat crude synaptic vesicles ([3H]-glutamate uptake)
Format: biochemical, Ratte
Conditions: for VGLUT (Ratte), Hemmung [%]: test concentration not given
Source text: I. Funktionelle Untersuchung an den vGLUT1- bzw. vGLUT2-Transportern
Die agonistische bzw. antagonistische Wirkung der zu untersuchenden Verbindungen am vGLUT1- bzw. vGLUT2-Transporter der Spezies Ratte kann mit folgendem Assay bestimmt werden.
Glutamat-Uptake in Rattenvesikel ('rat crude synaptic vesicles')
Die Präparation von Vesikeln wurde aus Rattengehirn-homogenaten (männlichen Ratten, Stamm Wistar SPF, 150-250 g Gewicht) durchgeführt gemäß Roseth et al. (1995) J. Neurochem. 65: 96-103, der sich auf Whittaker et al. (1964) Biochem J. 90, 293-303 und Fykse und Fonnum (1988) J. Neurochem. 50: 1237-1242 bezieht.
Hierzu wurden frisch entnommene Rattengehirne in 0,32 M Saccharose, 10 mM TRIS-maleat, 1 mM EGTA, pH 7,4 (10 ml/g Frischgewicht) mit einem Potter-Homogenisator (Fa. Braun/Melsungen; 5 Kolbenhübe bei 800 Upm) unter Eiskühlung homogenisiert und anschließend für 10 Minuten bei 3.000 g und 4°C zentrifugiert. Der resultierende Überstand wurde bei 20.000 g für 30 Minuten bei 4°C zentrifugiert. Das entstandene Pellet wurde dann im Verhältnis 1:3 mit 10 mM TRIS-maleate, 0,1 mM EGTA, pH 7,4 osmotisch geschockt und die Suspension bei 17000g für 30 min (4°C) zentrifugiert. Die im Überstand verbliebenen Vesikel wurden nun auf einen Dichtegradienten aus 0,6 M Saccharose in 10 mM TRIS-maleat, 1 mM EGTA, pH 7.4 und 0.4 M Saccharose in 10 mM TRIS-maleat, 1 mM EGTA, pH 7.4 geschichtet. Eine Ultrazentrifugation der Gradienten im Ausschwingrotor bei 65000g für 2h (4°C) schloss sich an. Die Vesikel-Fraktion wurde von der 0.4 M Saccharose-Bande isoliert und im Uptake-Versuch eingesetzt.
Die Substratlösung für den Uptake von [^3H]-Glutamat bestand aus ATP (neutralisiert mit Trisma base; 2 mM im Endansatz), Glutamat (0.5 mM im Endansatz) und ^3H-Glutamat (0.5 µCi im Endansatz). In 14 ml-Reagiergefäßen (Sarstedt, Artikel-Nr.: 798438) wurden jeweils 0,3 ml Gesamtvolumina (n=2/Probe) pipettiert in der folgenden Reihenfolge: 1.) 165 µl Inkubationspuffer (110 mM Kaliumtartrat, 10 mM TRIS-maleat, pH 7,4, 4 mM MgCl2), 2.) 10 µl Testsubstanz oder Vehikelkontrolle oder blank, 3.) 100 µl synaptische Vesikel. Es schloss sich eine Vorinkubation von 15 min bei 30°C an (nur blank-Ansätze befanden sich hierbei auf Eis). Danach wurde der Uptake durch Zugabe von 25 µl der oben beschriebenen Substratlösung gestartet. Die Reaktion wurde nach 5 min durch Zugabe von 7,0 ml eiskalter 150 mM KCI gestoppt. Anschließend wurden die Proben mit Hilfe des Brandel Cell Harvesters Typ M-24R über einen Membranfilter der Porengröße 0,8 µm abgesaugt und zweimal mit eiskalter 150 mM KCI nachgewaschen. Die Messung erfolgte am beta-Counter nach 15 h in 10 ml Szintillatorflüssigkeit (Filter Count).
Die Affinität der Verbindungen der allgemeinen Formel (I) für den vGLUT1- bzw. vGLUT2-Transporter wurde wie vorstehend beschrieben bestimmt (Pharmakologische Methoden)

[1] = compound freshly dissolved from the solid substance, read-out: VGLUT (Ratte), ICso-Fest

`O=C(O)c1ccccc1N1C(=O)c2ccc(Oc3ccc(Oc4ccc5c(c4)C(=O)N(c4ccccc4C(=O)O)C5=O)cc3)cc2C1=O` [Beispiel 1, 2,2'-(5,5'-(1,4-Phenylenbis(oxy))bis(1,3-dioxoisoindolin-5,2-diyl))dibenzoesäure] was tested, and the IC50 (read-out: VGLUT (Ratte), IC50) was 3.81 µM and the “VGLUT (Ratte), Hemmung [%]” value was 74%.
With `O=C(Nc1ccc(O)cc1C(=O)O)c1ccc(N2C(=O)c3ccc(C(=O)Nc4ccc(O)cc4C(=O)O)cc3C2=O)cc1` [Beispiel 2, 2-(4-(5-(2-Carboxy-4-hydroxyphenylcarbamoyl)-1,3-dioxoisoindolin-2-yl)benzamido)-5-hydroxybenzoesäure] the IC50 [1] was 0.032 µM, the IC50 (read-out: VGLUT (Ratte), IC50) was 0.0946 µM and the “VGLUT (Ratte), Hemmung [%]” value was 98%.
In the case of `O=C(Nc1ccccc1C(=O)O)c1cccc(N2C(=O)c3ccc(C(=O)Nc4ccccc4C(=O)O)cc3C2=O)c1` [Beispiel 3, 2-(3-(5-(2-Carboxyphenylcarbamoyl)-1,3-dioxoisoindolin-2-yl)benzamido)-benzoesäure], the IC50 (read-out: VGLUT (Ratte), IC50) is reported as 0.56 µM and the “VGLUT (Ratte), Hemmung [%]” value is reported as 97%.
`O=C(Nc1ccc(O)cc1C(=O)O)c1ccc(N2C(=O)c3ccc(C(=O)Nc4ccc(O)cc4C(=O)O)cc3C2=O)cc1` [Beispiel 4, 2-(4-(5-(2-Carboxylato-4-hydroxyphenylcarbamoyl)-1,3-dioxoisoindolin-2-yl)-benzamido)-5-hydroxybenzoesäure, Natriumsalz] showed an IC50 [1] of 0.154 µM.

— patent EP2338485A1, “Substituted 1,3-dioxoisoindolines as medicine” (Grünenthal GmbH, priority 2009, dated 2011)
